Results from patent EP1724268A1, “COMPOUND HAVING TGF-BETA INHIBITORY ACTIVITY AND PHARMACEUTICAL COMPOSITION CONTAINING SAME” (KIRIN BEER KABUSHIKI KAISHA, priority 2004, dated 2005).
Like-named read-outs stand apart in the source and are kept apart here.

System: TGFβ signal
Experiment: TGFβ signal inhibitory activity, (SBE)4-Luc reporter in A549 cells (Test Examples 1A and 1B)
Assay type: cell-based, human
Conditions: Homo sapiens, A549, read-out: TGFβ inhibition rate, %
Procedure, shortened: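 Stable A549 line carrying (SBE)4-Luc Smad3-binding reporter treated with compound plus TGFβ-1 (2 ng/ml) for 4 hr; luciferase read by chemiluminescence. Percent inhibition relative to TGFβ-only and untreated cells, tested at 3 µM and 10 µM, some also at 1 µM.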

[1] = 3 µM, compounds of Reference Examples (Test Example 1B)
[2] = 10 µM, compounds of Reference Examples (Test Example 1B)
[3] = test compound 3 µM, TGFβ-1 2 ng/ml, 4 hr, Table 1A
[4] = test compound 10 µM, TGFβ-1 2 ng/ml, 4 hr, Table 1A
[5] = test compound 3 µM, Reference Examples, Table 1B
[6] = test compound 10 µM, Reference Examples, Table 1B

SMILES	inhibition at 3 µM [1]	inhibition at 10 µM [2]	inhibition at 3 µM [5]	inhibition at 10 µM [6]	other results
COc1cc2c(Oc3cc4cccnc4nc3C)ccnc2cc1OCCN1CCCC(O)C1 (stereo not shown) [Compound r399]	99%	100%			
Cc1ccc(Oc2ccnc3ccc(OCC(C)(C)C)cc23)c(-c2ncccn2)n1 [Compound 214, 6-(2,2-Dimethyl-propoxy)-4-(6-methyl-2-pyrimidin-2-yl-pyridin-3-yloxy)-quinoline]					inhibition at 3 µM [3]: 90%
COc1cc2c(Oc3cc(C)c(C)nc3-c3ccc(C)cn3)ccnc2cc1OCC1CO1 (stereo not shown) [Compound r457]	97%	100%			
COC(=O)COc1cc2nccc(Oc3cc4ccccc4nc3C)c2cc1OC [Compound r371]	28%	90%			
COc1ccc2ncnc(Oc3cc4cccnc4nc3-c3ccccc3)c2c1 [Compound 70, 6-Methoxy-4-(2-phenyl-[1,8]naphthyridin-3-yloxy)-quinazoline]					inhibition at 3 µM [3]: 61%; inhibition at 10 µM [4]: 95%
COc1cc2nccc(Oc3ccc(C)cc3-c3ccno3)c2cc1OC [r12]			21%	89%	
COc1cc2nccc(Oc3ccccc3C(C)=O)c2cc1OC [Compound r29]			0%	67%	
COc1cc2c(Oc3ccc(C)cc3C(=O)c3ccccc3)ccnc2cc1OCC(O)CN1CCOCC1 (stereo not shown) [Compound r159]			98%	100%	
COc1cc2c(Oc3cc4ccccc4nc3C)ccnc2cc1OCCN1CCC(C(N)=O)CC1 [Compound r362]	100%	100%			
CCOC(=O)c1ccccc1C(=O)c1ccnc2cc(OC)c(OC)cc12 [Compound r163, Ethyl 2-[(6,7-dimethoxy-4-quinolyl)carbonyl]benzoate]			3%	67%	
COc1cc2c(Oc3cc(C)c(C)nc3-c3ccccn3)ccnc2cc1Cl [Compound 105, 3-(7-Chloro-6-methoxy-quinolin-4-yloxy)-5,6-dimethyl-[2,2']bipyridine]					inhibition at 3 µM [3]: 100%; inhibition at 10 µM [4]: 100%
COc1cc2nccc(Oc3cc(C)c(C)nc3-c3cccc(C)n3)c2cc1OC [Compound r271]	94%	100%			
COc1cc2c(Oc3cc(C)c(C)nc3-c3ccccn3)ccnc2cc1OCCCO [Compound r340]	99%				
Cc1cc(Oc2ccnc3ccncc23)c(-c2ccccn2)nc1C [Compound 31, 4-(5,6-Dimethyl-[2,2']bipyridin-3-yloxy)-[1,6]naphthyridine]					inhibition at 3 µM [3]: 85%; inhibition at 10 µM [4]: 99%
COc1cc2nccc(Oc3ccc(C)cc3C(=O)CCC3CCCC3)c2cc1OC [Compound r56]			0%	84%	
c1cnc2nc(-c3csc4ccccc34)c(Oc3ccnc4ccccc34)cc2c1 [Compound 90, 2-Benzo[b]thiophen-3-yl-3-(quinolin-4-yloxy)-[1,8]naphthyridine]					inhibition at 3 µM [3]: 22%; inhibition at 10 µM [4]: 68%
COc1cc2nccc(Oc3cc4cccnc4nc3-c3ccccc3)c2cc1OC(C)C [Compound 118, 3-(6-Isopropoxy-7-methoxy-quinolin-4-yloxy)-2-phenyl-[1,8]naphthyridine]					inhibition at 3 µM [3]: 100%; inhibition at 10 µM [4]: 100%
COc1cc2nccc(Oc3ccc(F)nc3-c3ccccn3)c2cc1OC [Compound 115, 3-(6,7-Dimethoxy-quinolin-4-yloxy)-6-fluoro-[2,2']bipyridine]					inhibition at 3 µM [3]: 100%; inhibition at 10 µM [4]: 100%
COc1cc2nccc(Oc3ccc4oc(=O)cc(C)c4c3)c2cc1OC [r306]	20%	53%			
COc1cc2nccc(Oc3cc(C)c(C)cc3C(C)=NO)c2cc1OC [Compound r195]	99%	100%			
COc1cc2nccc(Oc3ccccc3C(=O)OCc3ccccc3)c2cc1OC [r103]			20%	84%	
COc1cc2c(Oc3cc(C)c(C)nc3-c3ccc(C)cn3)ccnc2cc1OCCCO [Compound r460]	97%				
COc1cc2c(Oc3cc(C)c(C)nc3-c3cccnc3)ccnc2cc1O [Compound r345]	61%	93%			
COc1cc2c(Oc3ccc(C)cc3C(=O)c3ccccc3)ccnc2cc1OCCCCN1CCC(N2CCCC2)CC1 [Compound r145]			87%	100%	
COc1cc2nccc(Oc3ccc(Cl)cc3C(=O)Nc3ccc(Cl)c(Cl)c3)c2cc1OC [Compound r107]			0%	82%	
COc1cc2nccc(Oc3ccc(-n4ccnc4)cc3I)c2cc1OC [r171]	11%	76%			
